# Patent US9340577B2, “HLA binding motifs and peptides and their uses” (priority 1992, dated 2016)
# Where two headings read alike, the source gives them in different places. No end group written: not given here.
# What was measured:
# Test in all cases: biochemical
# DR4w4 (DRB1*0401) = DR4w4 (DRB1*0401) (Homo sapiens, UniProt P01903+P01911, A100K/A169T/F76Y/I96L/K127E/L162R/M171V/N62H/P40V/Q125Y/R42H/S133A/S149N/S66Y/V115G/V209L/W38E); format: binding
# DRB1*1302 = DRB1*1302 (Homo sapiens, UniProt P01903+P01911, A100E/A169T/K41T/L162R/M171V/P40S/Q125H/Q178H/Q39Y/Q99D/R42S/S66N/T262R/V115G/W38E/Y61H); format: binding
# DRB1*1101 = DRB1*1101 (Homo sapiens, UniProt P01903+P01911, A100R/A169T/A87E/I96F/K41T/L162R/M171V/P40S/Q125H/Q178H/Q39Y/Q99D/R42S/S66Y/T262R/V115G/W38E)
# DRB1*0901 = DRB1*0901 (Homo sapiens, UniProt P01903+P01911, A100R/A103E/D57H/D86V/F55Y/F60I/F76Y/I96F/K127E/L162R/M171V/P40D/Q125H/Q99R/R33Q/R42F/S133A/S66N/T210M/V115G/W38K/Y107V/Y59G/Y89S); format: binding
# DR7 (DRB1*0701) = DR7 (DRB1*0701) (Homo sapiens, UniProt P01903+P01911, A100R/A102G/A103Q/D57E/D86V/E43K/F76Y/K127E/L162R/M171V/P40G/Q125H/Q99D/R33Q/R42Y/R54Q/S133A/S66F/T210M/V115G/Y107V/Y59L/Y89S); format: binding
# DR1 (DRB1*0101) = DR1 (DRB1*0101) (Homo sapiens, UniProt P01903+P01911, A100R/D57E/F55L/F60I/F76Y/I96L/L162R/M171V/P40L/Q125E/R42F/V115G/Y59C); format: binding
# DRB4*0101 = DRB4*0101 (Homo sapiens, UniProt P01903+P13762, G164S); format: binding
# DRB1*0405 = DRB1*0405 (Homo sapiens, UniProt P01903+P01911, A100R/A169T/D86S/F76Y/I96L/K127E/L162R/M171V/N62H/P40V/Q125Y/R42H/S133A/S149N/S66Y/V115G/V209L/W38E); format: binding
# DRB1*1501 = DRB1*1501 (Homo sapiens, UniProt P01903+P01911); format: binding
# DRB1*0802 = DRB1*0802 (Homo sapiens, UniProt P01903+P01911, A100R/A103L/A169T/F76Y/H45Y/I96F/K41T/L162R/M171V/P40S/Q125H/Q178H/Q39Y/Q99D/R218S/R42G/S66Y/V115G/W38E); format: binding
# DRB5*0101 = DRB5*0101 (Homo sapiens, UniProt P01903+Q30154)
# Sequence of DRB1*1302 (P01903 26-254 limits assumed, other chains not shown): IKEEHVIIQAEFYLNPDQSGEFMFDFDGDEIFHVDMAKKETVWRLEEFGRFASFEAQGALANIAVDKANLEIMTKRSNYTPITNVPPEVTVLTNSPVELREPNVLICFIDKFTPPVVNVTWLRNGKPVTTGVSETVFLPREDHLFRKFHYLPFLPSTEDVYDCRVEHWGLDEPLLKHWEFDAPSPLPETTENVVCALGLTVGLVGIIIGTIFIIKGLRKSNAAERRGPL
# Sequence of DRB1*1101 (P01903 26-254 limits assumed, other chains not shown): as above
Sequence,IC50 (DR4w4 (DRB1*0401)) [µM],IC50 (DRB1*1302) [µM],IC50 (DRB1*1101; Binding affinity DRB1 *1101) [µM],IC50 (DRB1*0901) [µM],IC50 (DR7 (DRB1*0701)) [µM],IC50 (DR1 (DRB1*0101)) [µM],IC50 (DRB4*0101) [µM],IC50 (DRB1*0405) [µM],IC50 (DRB1*1501) [µM],IC50 (DRB1*0802) [µM],IC50 (DRB5*0101; Binding affinity DRB5 *0101) [µM],IC50 (DRB1*1101) [µM],IC50 (DRB5*0101) [µM]
FQVIELQMALETLSK [Peptide 89.0182],0.224,> 20,2.11,0.751,0.183,1.01,> 20,0.232,14,> 20,,,
ESDMAFQYAQLADCN [Peptide 89.0085],0.233,0.224,20,,3.25,0.011,0.048,19.7,7.42,5.92,7.69,,
ALSVSKAKALQAIEL [Peptide 89.0170],0.281,1.63,> 20,4.33,3.21,0.084,> 20,8.43,> 20,> 20,> 20,,
TYGVSFMELVRPFKS [Peptide 89.0095],> 20,0.598,,> 20,7.57,,0.389,> 20,0.592,> 20,9.07,,
LIKFFQGSVISFVNS [Peptide 89.0135],> 20,0.071,,> 20,> 20,> 20,3.73,> 20,> 20,7.98,,> 20,> 20
RDSVDSAPILTAFNS [Peptide 89.0156],0.02,0.025,7.05,,0.335,7.45,1.31,> 20,4.84,> 20,> 20,,
EVHVGGQVIVCPTSI [Peptide 89.0184],> 20,> 20,> 20,> 20,> 20,> 20,> 20,0.557,> 20,> 20,> 20,,
LIQLKCPPILLTTNI [Peptide 89.0038],3.8,> 20,> 20,> 20,0.99,0.015,0.158,3.95,6.8,,> 20,,
DRGIIILLLIRFRCS [Peptide 89.0062],> 20,> 20,8.28,> 20,> 20,> 20,7.56,7.18,14.4,0.085,> 20,,
DIAYKYAQLADVNSN [Peptide 89.0108],0.088,> 20,12.6,10.6,1.02,4.73,0.295,2.2,> 20,> 20,0.15,,
QQLLQVQTAHADKQT [Peptide 89.0115],5.5,> 20,,> 20,> 20,1.11,0.932,> 20,10.5,> 20,,,0.086
SRVIVCPTSIPSDQI [Peptide 90.0027],1.91,2,> 20,> 20,> 20,> 20,> 20,6.14,> 20,,> 20,,
RQHLANHPAATHTKA [Peptide 89.0155],> 20,0.878,16,> 20,> 20,> 20,> 20,> 20,8.66,> 20,> 20,,
KNCILIHGAPNTGKS [Peptide 89.0055],> 20,8.91,19.9,17,7.3,,0.577,3.85,1.4,> 20,> 20,,
QKCFKKKGITVTVQY [Peptide 90.0026],0.996,0.837,7.82,0.639,4.39,,1.31,2.91,> 20,1.33,> 20,,
QAELETAQALFHAQE [Peptide 89.0022],0.122,2.78,> 20,0.338,3.01,,0.072,0.592,> 20,> 20,1.95,,
RKTIAKALSSILNVP [Peptide 89.0123],11.5,> 20,,> 20,> 20,> 20,0.746,> 20,> 20,> 20,,> 20,
VKFLRYQQIEFVSFL [Peptide 89.0052],1.28,0.024,1.1,3.21,4.59,,0.002,2.77,0.535,7.05,11.2,,
CSAIEVQIALESLST [Peptide 90.0018],0.24,0.617,> 20,12,5.26,,0.029,3.32,> 20,> 20,> 20,,
LVQLKCPPLLLTSNT [Peptide 89.0077],4.03,2,17.6,11.7,1.09,0.051,0.307,3.5,0.774,,4.49,,
HALFTAQEAKQHRDA [Peptide 89.0001],0.205,> 20,> 20,> 20,> 20,,> 20,4.75,> 20,,7.16,,
YFKLFLQGTPKHNCL [Peptide 89.0133],0.109,0.193,,> 20,> 20,> 20,0.081,6.12,> 20,> 20,> 20,,
LKVLIKQHSIYTHLQ [Peptide 89.0142],> 20,0.448,> 20,> 20,> 20,,> 20,> 20,> 20,> 20,> 20,,
LKEFLKGTPKKNCIL [Peptide 89.0086],1.62,6.61,,11.9,5.43,,2.41,14.9,7.81,3.2,4.66,,
GQVIVCPTSISSNQI [Peptide 89.0185],0.091,1.33,6.53,> 20,> 20,,1.75,7.59,3.76,1.63,2.48,,
DSEIAYKYAQLADSD [Peptide 89.0051],> 20,> 20,3.38,5.32,> 20,,1.34,12.2,1.09,0.624,> 20,,
